Data: patent US20260256792A1, “TREATMENT OF CHRONIC SPONTANEOUS URTICARIA BY ADMINISTERING (R)-2-[3-[4-AMINO-3-(2-FLUORO-4-PHENOXY-PHENYL)PYRAZOLO[3,4-D]PYRIMIDIN-1-YL]PIPERIDINE-1-CARBONYL]-4-METHYL-4-[4-(OXETAN-3-YL)PIPERAZIN-1-YL]PENT-2-ENENITRILE” (priority 2023, published 2026)

Tested on: moderate-to-severe chronic spontaneous urticaria (CSU)
Assay: Phase 2 CSU study: urticaria activity score over 7 days (UAS7)
Assay type: in vivo, human
Details: ITT, 400 mg QPM
Source text: The study comprises a 12 week, randomized, double-blind, placebo-controlled, multi-center, dose-ranging efficacy and safety phase, followed by a 40 week open label extension (OLE) phase (see FIG. 1). The study consists of three phases and an optional OLE phase. […] Clinically, CSU is characterized by the spontaneous and recurrent appearance of pruritic hives. The proposed primary endpoints were the UAS7 at Week 12 in EU and EU reference countries and the ISS7 in the US. Regardless of where a participant was from, all assessments were the same. The UAS7 score is a composite score containing both the HSS7 and the ISS7. This allowed a global assessment of the two key components of urticaria: hives and itch. […] The UAS is a validated PRO measure. […] The daily UAS scores range from 0 to 6 point/day. […] Patients were to complete the UAS using the e-diary. […] The following secondary endpoints were to be analyzed using the same approach as for the primary endpoint: • Change from baseline in UAS7 at Week 4 • Change from baseline in UAS7 at Week 12 (for US and US reference countries) • Change from baseline in ISS7 at Week 12 (except US and US reference countries) • Change from baseline in HSS7 at Week 12 The following responder secondary endpoints were to be analyzed using the Cochran-Mantel-Haenszel test adjusted by region: • Proportion of participants with UAS7<6 at Week 12 • Proportion of participants with UAS7=0 at Week 12 Participants who received selected prohibited medications and/or rescue medications were to be considered as non-responders for time points after the medication usage. For other participants, all available data including those collected during the off-treatment period were to be used to determine the responder/non-responder status. Missing data were to be considered as non-responders.

With CC(C)(C=C(C#N)C(=O)N1CCC[C@@H](n2nc(-c3ccc(Oc4ccccc4)cc3F)c3c(N)ncnc32)C1)N1CCN(C2COC2)CC1 [rilzabrutinib, (R)-2-[3-[4-amino-3-(2-fluoro-4-phenoxy-phenyl)pyrazolo[3,4-d]pyrimidin-1-yl]piperidine-1-carbonyl]-4-methyl-4-[4-(oxetan-3-yl)piperazin-1-yl]pent-2-enenitrile] the “Non-responder n (%), UAS7 = 0” value (Week 6) was 37 (97.4) n (%), the “Non-responder n (%), UAS7 ≤6” value (Week 6) was 35 (92.1) n (%) and the “OR for rilzabrutinib vs. placebo, UAS7 = 0” value (Week 6) was 1.000. The “OR for rilzabrutinib vs. placebo, UAS7 ≤6” value (Week 6) was 0.540, the “RRD (%) for rilzabrutinib vs. placebo, UAS7 = 0” value (“RRD (%) … UAS7 = 0” below) (Week 6) was 0.0 % and the “RRD (%) for rilzabrutinib vs. placebo, UAS7 ≤6” value (“RRD (%) … UAS7 ≤6” below) (Week 6) was −6.3%. For the same molecule, the “Responder n (%), UAS7 = 0” value (Week 6) was 1 (2.6) n (%), the “Responder n (%), UAS7 ≤6” value (Week 6) was 3 (7.9) n (%) and the “Imputed non-responder n (%), UAS7 = 0” value (Week 7) was 6 (15.8) n (%). The “Imputed non-responder n (%), UAS7 ≤6” value (Week 7) was 6 (15.8) n (%), the “Non-responder n (%), UAS7 = 0” value (Week 7) was 37 (97.4) n (%) and the “Non-responder n (%), UAS7 ≤6” value (Week 7) was 37 (97.4) n (%). The “OR for rilzabrutinib vs. placebo, UAS7 = 0” value (Week 7) was 1.167, the “OR for rilzabrutinib vs. placebo, UAS7 ≤6” value (Week 7) was 0.278 and the “RRD (%) … UAS7 = 0” value (Week 7) was 0.4 %. For the same molecule, the “RRD (%) … UAS7 ≤6” value (Week 7) was −7.3%, the “Responder n (%), UAS7 = 0” value (Week 7) was 1 (2.6) n (%) and the “Responder n (%), UAS7 ≤6” value (Week 7) was 1 (2.6) n (%). For the same molecule, the “Imputed non-responder n (%), UAS7 = 0” value (Week 8) was 7 (18.4) n (%), the “Imputed non-responder n (%), UAS7 ≤6” value (Week 8) was 7 (18.4) n (%) and the “Non-responder n (%), UAS7 = 0” value (Week 8) was 37 (97.4) n (%). For the same molecule, the “Non-responder n (%), UAS7 ≤6” value (Week 8) was 35 (92.1) n (%), the “OR for rilzabrutinib vs. placebo, UAS7 = 0” value (Week 8) was 0.527 and the “OR for rilzabrutinib vs. placebo, UAS7 ≤6” value (Week 8) was 0.502. The “RRD (%) … UAS7 = 0” value (Week 8) was −2.2 %, the “RRD (%) … UAS7 ≤6” value (Week 8) was −7.0% and the “Responder n (%), UAS7 = 0” value (Week 8) was 1 (2.6) n (%). The “Responder n (%), UAS7 ≤6” value (Week 8) was 3 (7.9) n (%), the “Imputed non-responder n (%), UAS7 = 0” value (Week 9) was 6 (15.8) n (%) and the “Imputed non-responder n (%), UAS7 ≤6” value (Week 9) was 6 (15.8) n (%). The “Non-responder n (%), UAS7 = 0” value (Week 9) was 37 (97.4) n (%), the “Non-responder n (%), UAS7 ≤6” value (Week 9) was 35 (92.1) n (%) and the “OR for rilzabrutinib vs. placebo, UAS7 = 0” value (Week 9) was 0.330. The “OR for rilzabrutinib vs. placebo, UAS7 ≤6” value (Week 9) was 0.773, the “RRD (%) … UAS7 = 0” value (Week 9) was −4.9 % and the “RRD (%) … UAS7 ≤6” value (Week 9) was −2.2 %. For the same molecule, the “Responder n (%), UAS7 = 0” value (Week 9) was 1 (2.6) n (%), the “Responder n (%), UAS7 ≤6” value (Week 9) was 3 (7.9) n (%) and the “Imputed non-responder n (%), UAS7 = 0” value (Week 10) was 6 (15.8) n (%). For the same molecule, the “Imputed non-responder n (%), UAS7 ≤6” value (Week 10) was 6 (15.8) n (%), the “Non-responder n (%), UAS7 = 0” value (Week 10) was 37 (97.4) n (%) and the “Non-responder n (%), UAS7 ≤6” value (Week 10) was 36 (94.7) n (%). For the same molecule, the “OR for rilzabrutinib vs. placebo, UAS7 = 0” value (Week 10) was 0.235, the “OR for rilzabrutinib vs. placebo, UAS7 ≤6” value (Week 10) was 0.279 and the “RRD (%) … UAS7 = 0” value (Week 10) was −7.9 %. For the same molecule, the “RRD (%) … UAS7 ≤6” value (Week 10) was −11.9%, the “Responder n (%), UAS7 = 0” value (Week 10) was 1 (2.6) n (%) and the “Responder n (%), UAS7 ≤6” value (Week 10) was 2 (5.3) n (%). For the same molecule, the “Imputed non-responder n (%), UAS7 = 0” value (Week 11) was 7 (18.4) n (%), the “Imputed non-responder n (%), UAS7 ≤6” value (Week 11) was 7 (18.4) n (%) and the “Non-responder n (%), UAS7 = 0” value (Week 11) was 36 (94.7) n (%). For the same molecule, the “Non-responder n (%), UAS7 ≤6” value (Week 11) was 35 (92.1) n (%), the “OR for rilzabrutinib vs. placebo, UAS7 = 0” value (Week 11) was 1.065 and the “OR for rilzabrutinib vs. placebo, UAS7 ≤6” value (Week 11) was 0.418. The “RRD (%) … UAS7 = 0” value (Week 11) was 0.3 %, the “RRD (%) … UAS7 ≤6” value (Week 11) was −9.4% and the “Responder n (%), UAS7 = 0” value (Week 11) was 2 (5.3) n (%). The “Responder n (%), UAS7 ≤6” value (Week 11) was 3 (7.9) n (%), the “Imputed non-responder n (%), UAS7 = 0” value (Week 12) was 10 (26.3) n (%) and the “Imputed non-responder n (%), UAS7 ≤6” value (Week 12) was 10 (26.3) n (%). The “Non-responder n (%), UAS7 = 0” value (Week 12) was 37 (97.4) n (%), the “Non-responder n (%), UAS7 ≤6” value (Week 12) was 36 (94.7) n (%) and the “OR for rilzabrutinib vs. placebo, UAS7 = 0” value (Week 12) was 0.194. For the same molecule, the “OR for rilzabrutinib vs. placebo, UAS7 ≤6” value (Week 12) was 0.378, the “RRD (%) … UAS7 = 0” value (Week 12) was −10.0 % and the “RRD (%) … UAS7 ≤6” value (Week 12) was −7.6%. The “Responder n (%), UAS7 = 0” value (Week 12) was 1 (2.6) n (%).
